Measurements: patent publication US9701556B1, “Compositions, methods, and systems for reducing contamination” (priority 2004, dated 2017)
“And” between values parts separate entries of the source, which are not always exact repeats. Identical values can stand only once.

How the values were obtained:
[1] = Treatment of contaminated groundwater, BTEX SW 846 8260; details: 250 ml groundwater, 1 ml 35% hydrogen peroxide (with or without 1 ml Fe-GLC); untreated 56 ppb; ND = non detectible
[2] = Treatment of sulfides in municipal wastewater with ferric chelants and hydrogen peroxide; details: for sulfide reduction after 15 minutes: 2.5:1.0 peroxide to sulfide, 105.8 ppm hydrogen peroxide, 20 ppm chelant where added, peroxide alone averaged; for sulfide treatment after 15 minutes: 37.8 ppm hydrogen peroxide, 12 ppm chelant where added; for Sulfide Remaining, Dose 1 12 ppm Chelant / Sulfide Remaining, Dose 2 6 ppm Chelant: 37.8 ppm H2O2, start 25.4 ppm sulfide; for Sulfide Remaining, Dose 1 20 ppm Chelant / Sulfide Remaining, Dose 2 10 ppm Chelant: 105.8 ppm H2O2, start 42.3 ppm sulfide
Experimental: The pH was then raised to 7 using sodium hydroxide. Precipitation of iron oxides and/or hydroxides at this pH offered assurance of complete chelation of still soluble iron after 24 hours.
Total sulfides were tested for using Standard Methods 4500-S^2− D with a Hach Chemical Company (of Loveland, Colo.) DR 2000 Spectrophotometer and reagents from Hach specific for this particular test. To keep total sulfides within the range of the test, samples were diluted with distilled water prior to conducting the test as per Hach instructions.
Tests for total sulfide were conducted after 5, 15, and 30 minutes of contact time on each of the seven liter test jars.

Fecal Coliform = test: Disinfection of wastewater, fecal coliform count; assay type: cell-based; details: 50 microliters 35% H2O2 (with or without 50 microliters Fe-GLC), after twenty minutes, control 2200
Text: The samples were divided equally into three clean 500 milliliter sample containers from the single sample taken. The first sample served as a control and was set aside. […] Each sample was capped and shaken briefly to mix the contents. After twenty minutes, sub-samples were taken from each vessel and pored into fecal coliform sample containers for analysis at the Hampton Roads Sanitary District lab.

[3] = Comparative treatment of 2,4-D in water, GC analysis; details: after four hours
Experimental: A solution containing 1.5 L of distilled water, approximately 0.2 g of sodium bicarbonate, and a small amount of sodium salt of 2,4-D were prepared with magnetic stirring at room temperature in a 2.5 L flask. The dissolved sodium bicarbonate increased the alkalinity of the water somewhat, causing the water to mimic a natural water source. Two hundred fifty milliliters of this solution was distributed into three 500 mL Erlenmeyer flasks.
The flasks were then covered with parafilm and swirled to facilitate mixing of the solution.

[4] = Treatment of contaminated groundwater, BTEX SW 846 8260; details: 250 ml groundwater, 1 ml 35% hydrogen peroxide (with or without 1 ml Fe-GLC); untreated 171 ppb; ND = non detectible
[5] = as above; details: 250 ml groundwater, 1 ml 35% hydrogen peroxide (with or without 1 ml Fe-GLC); untreated 27 ppb
[6] = as above; details: 250 ml groundwater, 1 ml 35% hydrogen peroxide (with or without 1 ml Fe-GLC); untreated 159 ppb; ND = non detectible
heterotrophic bacteria = test: Disinfection of wastewater with chelated iron compounds, total heterotrophic bacteria counts; assay type: cell-based; details: for disinfection effect, in words: compared with hydrogen peroxide alone
Experimental: A 10 gallon sample of wastewater from the Massaponax Wastewater Plant was collected and allowed to sit undisturbed for thirty minutes. The clarified supernatant was then pored off of the top of the settled solids within the sample. The supernatant was then mixed and four samples were collected to determine untreated heterotrophic bacteria counts. […] were dissolved in distilled water at 0.4334M. Ferric chloride was added in amounts to achieve saturation of chelant sites on the respective chelants. […] Twenty individual liter samples of supernatant were then decanted from the well-mixed wastewater sample for testing. Four chelated iron products with peroxide were tested at two test concentrations and compared to samples receiving peroxide only and iron chelate only. […] Individual samples were dosed with the respective additives, mixed with a magnetic stir bar and allowed to react for 30 minutes. Samples were then decanted to sterile sample containers containing sodium thiosulfate to stop the oxidation process and preserve the sample. Samples were then placed in a refrigerator until all samples were finished. Samples were packaged in a standard cooler with ice packs and sent via overnite delivery to ProChem Labs in Lynchburg, Va. for analysis for total heterotrophic bacteria counts.

[7] = Treatment of contaminated groundwater, BTEX SW 846 8260; details: 250 ml groundwater, 1 ml 35% hydrogen peroxide (with or without 1 ml Fe-GLC); untreated 34 ppb; ND = non detectible
[8] = cited from earlier work
[9] = Treatment of sulfides in municipal wastewater with ferric chelants and ozone; details: 4 ppm ferric chelant where added; for sulfide remaining: ozone at ~13.4 ppm; for Overall total percentage of sulfide reduction: ozone
[10] = after 30 minutes, 1.5:1.0 ratio of peroxide to sulfide
[11] = after 30 minutes, 2.5:1.0 ratio of peroxide to sulfide
[12] = Series One, contact time 5 minutes
[13] = Series One, contact time 15 minutes
[14] = Series One, contact time 30 minutes
[15] = Series Two, contact time 5 minutes
[16] = Series Two, contact time 15 minutes
[17] = Series Two, contact time 30 minutes
[18] = 30 minutes, raw average 18,188 CFUs

Compound: OO [H2O2 Only, hydrogen peroxide]
- Benzene [1]: 15.1 ppb
- sulfide reduction after 15 minutes [2]: 52%
- sulfide treatment after 15 minutes [2]: 42.9%
- Percentage of Sulfide Treated, Dose 3 38.7 ppm H2O2 Only [2, 10]: 55.5 and 59.0 and 46.5 and 56.3 and 57.0 and 54.7
- Percentage of Sulfide Treated, Dose 3 105.8 ppm H2O2 Only [2, 11]: 69.0 and 69.5 and 67.8 and 66.4 and 44.4 and 69.3 and 70.2
- Fecal Coliform (Fecal Coliform): 53 cfu/100 mL
- Fecal Coliform (Fecal Coliform; listed as hydrogen peroxide): Fifty three
- 2,4-D concentration ([3]; 250 mL, 200 microliters 50% hydrogen peroxide (with or without 200 microliters Fe-GLC), untreated 130 ppb): 230 ppb
- effect on 2,4-D, in words [3]: had no affect
- Toluene [4]: 55.7 ppb
- MtBE [5]: 15.7 ppb
- Xylenes [6]: 67.0 ppb
- disinfection effect, in words (heterotrophic bacteria): good disinfectant
- Ethylbenzene [7]: 13.0 ppb

Compound: O=C([O-])[C@H](O)[C@@H](O)[C@H](O)[C@H](O)CO.[Na+] [Sodium gluconate]
- readily biodegradable ([8]; after 2 days): 98%
- solubility in water [8]: very soluble in water

Compound: ferric gluconate [Fe-GLC]
- sulfide remaining ([9]; start 13.70, contact time 5 minutes): 3.40 ppm
- sulfide remaining ([9]; start 13.70, contact time 10 minutes): 2.80 ppm
- sulfide remaining ([9]; start 13.70, contact time 20 minutes): 1.40 ppm
- Overall total percentage of sulfide reduction [9]: 90%
- Overall total percentage of sulfide reduction ([9]; listed as Fe-Gluconate): 90%
- sulfide reduction after 15 minutes [2]: 86.8%
- sulfide treatment after 15 minutes [2]: 70%
- Sulfide Remaining, Dose 1 12 ppm Chelant [2, 12]: 14.2 ppm
- Sulfide Remaining, Dose 2 6 ppm Chelant [2, 12]: 15.9 ppm
- Sulfide Remaining, Dose 1 12 ppm Chelant [2, 13]: 7.3 ppm
- Sulfide Remaining, Dose 2 6 ppm Chelant [2, 13]: 11.5 ppm
- Sulfide Remaining, Dose 1 12 ppm Chelant [2, 14]: 4.3 ppm
- Sulfide Remaining, Dose 2 6 ppm Chelant [2, 14]: 7.4 ppm
- Sulfide Remaining, Dose 4 Chelant Only ([2]; Series One, no H2O2, start 25.4 ppm sulfide, contact time 30 minutes): 24.9 ppm
- Sulfide Remaining, Dose 4 Chelant Only ([2]; Series Two, 20 ppm chelant, no H2O2, start 42.3 ppm sulfide, contact time 30 minutes): 43.0 ppm
- Sulfide Remaining, Dose 1 20 ppm Chelant [2, 15]: 18.6 ppm
- Sulfide Remaining, Dose 2 10 ppm Chelant [2, 15]: 23.5 ppm
- Sulfide Remaining, Dose 1 20 ppm Chelant [2, 16]: 5.6 ppm
- Sulfide Remaining, Dose 2 10 ppm Chelant [2, 16]: 7.3 ppm
- Sulfide Remaining, Dose 1 20 ppm Chelant [2, 17]: 1.1 ppm
- Sulfide Remaining, Dose 2 10 ppm Chelant [2, 17]: 2.2 ppm
- Percentage of Sulfide Treated, Dose 1 12 ppm Chelant 37.8 ppm H2O2 [2, 10]: 83.1
- Percentage of Sulfide Treated, Dose 2 6 ppm Chelant 37.8 ppm H2O2 [2, 10]: 70.8
- Percentage of Sulfide Treated, Dose 1 20 ppm Chelant 105.8 ppm H2O2 [2, 11]: 97.4
- Percentage of Sulfide Treated, Dose 2 10 ppm Chelant 105.8 ppm H2O2 [2, 11]: 94.8
- sulfide treatment compared with hydrogen peroxide alone, in words ([2]; over 30 minutes of treatment): noticeably better
- Fecal Coliform (Fecal Coliform): no detectable CFUs
- effect on 2,4-D, in words [3]: substantially reduced
- Test 1 CFUs/ml, 19.8 ppm H2O2 6 ppm Fe-Chelant (heterotrophic bacteria; [18]): 98 CFUs/ml
- Test 2 CFUs/ml, 39.6 ppm H2O2 12 ppm Fe-Chelant (heterotrophic bacteria; [18]): 28 CFUs/ml
- Test 3 CFUs/ml, 12 ppm Fe-Chelant (heterotrophic bacteria; chelant alone, no H2O2, 30 minutes, raw average 18,188 CFUs): 22,600 CFUs/ml
- disinfection effect, in words (heterotrophic bacteria): better than peroxide alone
